Read-outs that look alike come from different tables or passages of the source.
What was measured:
[1] = molecular target: BCLXL WT (Homo sapiens (Human), UniProt Q07817); assay: TR-FRET competitive binding assay, BCLXL WT; conditions: for Ki: BCLXL WT, Ki determined from IC50, read-out: TR_FRET EKI BclxL; for TR_FRET EKI BCLxL/WT selectivty ratio: ratio Ki BCLxL / Ki BCL2 WT
Outline: (§1)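 Ki derived from IC50 (11-point dilution, 520/495 nm emission ratio) for displacing a fluorescein-labelled PUMA peptide (2 or 20 nM). Target was 0.5 nM E. coli-expressed Halo-tagged BCL2 (1-207) or BCLXL (2-196), terbium-labelled on Halo. Incubation 2 h at 23°C in pH 7.5 Hepes with 150 mM NaCl and 5% DMSO.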

[2] = system: KMS-12-PE Bcl-2 G101V; assay: In vitro cytotoxicity CellTiter-Glo 48 h, KMS-12-PE Bcl-2 G101V; type: cell-based; conditions: for Ratio (G101V/WT): C50 KMS-12-PE Bcl-2 G101V over C50 KMS-12-PE Bcl-2 WT; for IC50: 48 h, CellTiter-Glo, C50 = concentration needed to reach 50% of the cellular viability
Outline: (§2)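 Transduce KMS-12-PE with Bcl-2 WT or G101V lentivirus, then FACS-sort RFP-positive cells. Add compounds in an 11-point dilution series and incubate 48 h at 37 °C. Measure ATP-based luminescence with CellTiter-Glo and derive C50 (50% viability).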

[3] = system: BCL2 G101V; assay: TR-FRET competitive binding assay, BCL2 G101V; design: species or system human; conditions: for TR_FRET EKI G101V/WT selectivty ratio: ratio Ki BCL2 G101V / Ki BCL2 WT
Outline: as §1

[4] = molecular target: BCL2 G101V (Homo sapiens, UniProt P10415, G101V); assay: TR-FRET competitive binding assay, BCL2 G101V; conditions: BCL2 G101V; Ki determined from IC50; read-out: TR_FRET EKI_Bcl2 G101V
Outline: as §1

[5] = molecular target: BCL2 WT (Homo sapiens (Human), UniProt P10415); assay: TR-FRET competitive binding assay, BCL2 WT
Outline: as §1

[6] = molecular target: BCL2 D111A (Homo sapiens, UniProt P10415, D111A); assay: TR-FRET competitive binding assay, BCL2 D111A; conditions: Ki determined from IC50, read-out: TR_FRET EKI_Bcl2 D111A
Description: (§3) The relative binding potency of each compound was determined in a competitive binding assay using time resolved-fluorescence resonance energy transfer (TR-FRET). The method utilised a fluorescein labelled peptide derived from PUMA (5Flu-Ahx-[…]-NH2 wherein Ahx means 6-hexanoic acid monomer and the amino acid sequence is referred to as SEQ ID:01) which binds to a terbium labelled BCL2 or BCLXL protein. The degree of binding or corresponding compound inhibition can be quantified by the TR-FRET signal between the terbium donor and fluorescein acceptor.
(§4) The human BCL2_wild-type (also named BCL2_wt), BCL2_G101V mutant and BCLXL_wild-type were E. coli expressed as a N-terminal Halo-fusion proteins and singly labelled with Terbium on the Halo protein to afford the following amino acid sequences:
(§5) wherein the BCL2(1-207) sequence corresponds to UniProtKB® primary accession number P10415 and the BCLXL(2-196) sequence corresponds to UniProtKB® primary accession number Q07817-1.
(§6) The assay was performed in a 40 μL volume in white 384-standard well plates (Corning #3574). An 11-point serial dilution of each compound was prepared in DMSO and transferred directly to plate followed by addition of fluorescein labelled peptide and lastly protein. Final assay conditions were 0.5 nM BCL2_wt, BCL2_G101V, BCL2_D103Y, BCL2_F104I, BCL2_D111A or BCLXL_wt, 2 or 20 nM fluorescein labelled peptide, 50 mM Hepes pH 7.5, 150 mM NaCl, 0.5 mM TCEP (Tris(2-carboxyethyl)phosphine), 0.05% Tween 20, 5% DMSO. The mixture was incubated for 2 hours at 23° C.
(§7) TR-FRET measurements were performed on a Biotek Synergy Neo plate reader. TR-FRET was measured by excitation of the Terbium-donor at 340 nm and subsequent (delay time 100 μs) measurement of terbium and fluorescein emission at 495 nm and 520 nm, respectively, over a collection time of 300 μs. The TR-FRET signal was calculated as the emission-ratio at 520 nm over 495 nm.
(§8) The TR-FRET ratio readout for test compounds was normalized against 0% inhibition controls wells and 100% inhibition control wells. Test compound potency (IC50) was estimated by nonlinear regression using the sigmoidal dose-response (variable slope) using Xlfit 4 (IDBS, Guildford, Surrey, UK, model 205). Were the IC50 could not be determined the % inhibition at the highest tested concentration is given.
(§9) y=(A+((B−A)/(1+((C/x)^D))))
(§10) where y is the normalized TR-TRET ratio measurement for a given concentration of test compound, x is the concentration of test compound, A is the estimated efficacy (% inhibition) at infinite compound dilution, and B is the maximal efficacy (% inhibition). C is the IC50 value and D is the Hill slope coefficient.
(§11) The K1 values were determined from the IC50 values according to Cer et al, Nucleic Acids Res, 2009, July 1; 37 (WebServer issue): W441-W445.

[7] = molecular target: BCL2 F104I (Homo sapiens, UniProt P10415, F104I); assay: TR-FRET competitive binding assay, BCL2 F104I; conditions: Ki determined from IC50, read-out: TR_FRET EKI_Bcl2 F104I
Description: as §3, §4, §5, §6, §7, §8, §9, §10, §11

[8] = system: KMS-12-PE Bcl-2 WT; assay: In vitro cytotoxicity CellTiter-Glo 48 h, KMS-12-PE Bcl-2 WT; type: cell-based; conditions: Homo sapiens, KMS-12-PE, C50 = concentration needed to reach 50% of the cellular viability
Outline: as §2

[9] = molecular target: BCL2 D103Y (Homo sapiens, UniProt P10415, D103Y); assay: TR-FRET competitive binding assay, BCL2 D103Y; conditions: Ki determined from IC50, read-out: TR_FRET EKI_Bcl2 D103Y
Outline: as §1

[10] = Ki determined from IC50, read-out: TR_FRET EKI_Bcl2 WT

Sequence of BCLXL WT (Q07817 other isoform, or with tags, fused parts or gaps): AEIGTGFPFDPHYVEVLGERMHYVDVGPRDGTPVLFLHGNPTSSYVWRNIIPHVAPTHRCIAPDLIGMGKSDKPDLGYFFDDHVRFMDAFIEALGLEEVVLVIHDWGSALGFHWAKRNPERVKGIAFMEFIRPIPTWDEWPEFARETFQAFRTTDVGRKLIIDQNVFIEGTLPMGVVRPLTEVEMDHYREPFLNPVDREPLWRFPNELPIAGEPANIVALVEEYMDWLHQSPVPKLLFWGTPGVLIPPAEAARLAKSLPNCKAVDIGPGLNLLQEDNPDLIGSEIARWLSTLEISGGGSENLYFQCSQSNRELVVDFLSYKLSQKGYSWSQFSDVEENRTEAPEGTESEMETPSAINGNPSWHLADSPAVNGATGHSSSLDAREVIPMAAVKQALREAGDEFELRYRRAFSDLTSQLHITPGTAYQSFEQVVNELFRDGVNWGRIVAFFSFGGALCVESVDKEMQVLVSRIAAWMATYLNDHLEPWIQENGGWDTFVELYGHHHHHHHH

Row | Ki [1] | TR_FRET EKI BCLxL/WT selectivty ratio [1] | TR_FRET EKI G101V/WT selectivty ratio [3] | Ki [4] | Ki [5, 10] | Ki [6] | Ki [7] | Ki [9] | TR_FRET EKI BCLxL/WT selectivty ([1]; ratio of Ki BCLxL to BCL2 WT) | TR_FRET EKI G101V/WT selectivty ([3]; ratio of Ki BCL2 G101V to BCL2 WT) | Ki ([5]; Ki determined from IC50, read-out: TR_FRET EKI_Bcl2) | Structure (SMILES) | Ratio (G101V/WT) [2] | IC50 ([2]; Homo sapiens, KMS-12-PE) | IC50 [8] | IC50 [2]
1 | 3 nM | 16.7 | 1.8 | 0.3 nM | 0.18 nM | 0.36 nM | 0.76 nM | 0.62 nM |  |  |  | Cc1c(N(C(=O)c2cc(-c3cc4c(cc3C(=O)N3Cc5ccccc5C[C@H]3C)CN(C(=O)Cc3ccc(OCCN5C[C@H](C)O[C@@H](C)C5)cc3)CC4)n(C)c2C)c2ccc(O)cc2)cc(C#N)n1C (single isomer, unassigned) [Example 42, N-(5-cyano-1,2-dimethyl-1H-pyrrol-3-yl)-5-{2-[2-(4-{2-[(2R or S,6R or S)-2,6-dimethylmorpholin-4-yl]ethoxy}phenyl)acetyl]-7-[(3R)-3-methyl-1,2,3,4-tetrahydroisoquinoline-2-carbonyl]-1,2,3,4-tetrahydroisoquinolin-6-yl}-N-(4-hydroxyphenyl)-1,2-dimethyl-1H-pyrrole-3-carboxamide] | 3.77 | 0.0175 µM | 0.0046 µM | 
2 | 1.7 nM | 15.5 | 7.8 | 0.9 nM | 0.11 nM | 0.42 nM | 2.84 nM | 0.46 nM |  |  |  | Cc1c(N(C(=O)c2cc(-c3cc4c(cc3C(=O)N3Cc5ccccc5C[C@H]3C)CN(C(=O)Cc3ccc(N5CCC(N6CCOCC6)C5)cc3)CC4)n(C)c2C)c2ccc(O)cc2)cc(C#N)n1C (single isomer, unassigned) [Example 63, N-(5-cyano-1,2-dimethyl-1H-pyrrol-3-yl)-N-(4-hydroxyphenyl)-1,2-dimethyl-5-{7-[(3R)-3-methyl-1,2,3,4-tetrahydroisoquinoline-2-carbonyl]-2-(2-{4-[(3R or S)-3-(morpholin-4-yl)pyrrolidin-1-yl]phenyl}acetyl)-1,2,3,4-tetrahydroisoquinolin-6-yl}-1H-pyrrole-3-carboxamide] | 5.84 | 0.046 µM | 0.0079 µM | 
3 | 2.1 nM | 30.9 | 5.1 | 0.4 nM | 0.07 nM | 0.16 nM | 0.19 nM | 0.14 nM |  |  |  | Cc1c(N(C(=O)c2cc(-c3cc4c(cc3C(=O)N3Cc5ccccc5C[C@H]3CN3CCCCC3)CN(C(=O)Cc3ccc(OCCN5CCOC(C)C5)cc3F)CC4)n(C)c2C)c2ccc(O)cc2)cc(C#N)n1C (single isomer, unassigned) [Example 108, N-(5-cyano-1,2-dimethyl-1H-pyrrol-3-yl)-5-[2-(2-{2-fluoro-4-[2-((2S or R)-2-methylmorpholin-4-yl)ethoxy]phenyl}acetyl)-7-[(3S)-3-[(piperidin-1-yl)methyl]-1,2,3,4-tetrahydroisoquinoline-2-carbonyl]-1,2,3,4-tetrahydroisoquinolin-6-yl]-N-(4-hydroxyphenyl)-1,2-dimethyl-1H-pyrrole-3-carboxamide] | 5.85 | 0.0383 µM | 0.0066 µM | 
4 | 3.6 nM | 76.6 | 4.3 | 0.2 nM | 0.05 nM | 0.13 nM | 0.26 nM | 0.16 nM |  |  |  | Cc1c(N(C(=O)c2cc(-c3cc4c(cc3C(=O)N3Cc5ccccc5C[C@H]3CN3CCCCC3)CN(C(=O)Cc3ccc(OCC(C)N5CCOCC5)cc3)CC4)n(C)c2C)c2ccc(O)cc2)cc(C#N)n1C (single isomer, unassigned) [Example 127, N-(5-cyano-1,2-dimethyl-1H-pyrrol-3-yl)-N-(4-hydroxyphenyl)-1,2-dimethyl-5-[2-(2-{4-[(2S or R)-2-(morpholin-4-yl)propoxy]phenyl}acetyl)-7-[(3S)-3-[(piperidin-1-yl)methyl]-1,2,3,4-tetrahydroisoquinoline-2-carbonyl]-1,2,3,4-tetrahydroisoquinolin-6-yl]-1H-pyrrole-3-carboxamide] | 3.58 |  | 0.0077 µM | 0.0277 µM
5 | 4.5 nM | 60.8 | 5.8 | 0.4 nM | 0.07 nM | 0.17 nM | 0.34 nM | 0.21 nM |  |  |  | Cc1c(N(C(=O)c2cc(-c3cc4c(cc3C(=O)N3Cc5ccccc5C[C@H]3CN3CCCCC3)CN(C(=O)Cc3ccc(OCC(C)N5CCOCC5)cc3F)CC4)n(C)c2C)c2ccc(O)cc2)cc(C#N)n1C (single isomer, unassigned) [Example 135, N-(5-cyano-1,2-dimethyl-1H-pyrrol-3-yl)-5-[2-(2-{2-fluoro-4-[(2S or R)-2-(morpholin-4-yl)propoxyphenyl}acetyl)-7-[(3S)-3-[(piperidin-1-yl)methyl]-1,2,3,4-tetrahydroisoquinoline-2-carbonyl]-1,2,3,4-tetrahydroisoquinolin-6-yl]-N-(4-hydroxyphenyl)-1,2-dimethyl-1H-pyrrole-3-carboxamide] | 7.72 | 0.0339 µM | 0.0044 µM | 
6 | 1.1 nM | 8.5 | 5.1 | 0.7 nM | 0.13 nM |  | 2.03 nM | 0.67 nM |  |  |  | Cc1c(N(C(=O)c2cc(-c3cc4c(cc3C(=O)N3Cc5ccccc5C[C@H]3C)CN(C(=O)Cc3cccc(N5CCOCC5)c3)CC4)n(C)c2C)c2ccc(O)cc2)cc(C#N)n1C [Example 6, N-(5-cyano-1,2-dimethylpyrrol-3-yl)-N-(4-hydroxyphenyl)-1,2-dimethyl-5-(7-{[(3R)-3-methyl-3,4-dihydro-1H-isoquinolin-2-yl]carbonyl}-2-{2-[3-(morpholin-4-yl)phenyl]acetyl}-3,4-dihydro-1H-isoquinolin-6-yl)pyrrole-3-carboxamide] | 5.34 | 0.0566 µM | 0.0106 µM | 
7 | 4.15 nM |  |  | 0.73 nM |  | 0.132 nM | 1.12 nM | 0.786 nM | 53.1 | 9.3 | 0.078 nM | Cc1c(N(C(=O)c2cc(-c3cc4c(cc3C(=O)N3Cc5ccccc5C[C@H]3C)CN(C(=O)Cc3ccc(OCCN5CCOCC5)cc3)CC4)n(C)c2C)c2ccccc2)cc(C#N)n1C [Example 236] |  |  | 0.00418 µM | 
